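Growth conditions: 96-well plates. Treatment: test compound, 48 hours, 5 concentrations. Analysis: linear interpolation between bracketing concentrations; unreached endpoints set to highest concentration. The concentration for full growth arrest is given as TGI.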
Columns and labels:
Assay in all cases: NCI tumour cell line growth inhibition, 48 h
[1] = system: 786-0 renal
[2] = system: A498 renal
[3] = system: A549 NSCLC
[4] = system: ACHN renal
[5] = system: CAKI-1 renal
[6] = system: CCRF-CEM leukemia
[7] = system: COLO 205 colon
[8] = system: DLD-1 colon
[9] = system: DMS 114 small cell lung
[10] = system: DMS 273 small cell lung
[11] = system: EKVX NSCLC
[12] = system: HL-60(TB) leukemia
[13] = system: HOP-18 NSCLC
[14] = system: HOP-62 NSCLC
[15] = system: HOP-92 NSCLC
[16] = system: HT29 colon
[17] = system: IGROV1 ovarian
[18] = system: K-562 leukemia
[19] = system: KM12 colon
[20] = system: KM20L2 colon
[21] = system: LOX IMVI melanoma
[22] = system: LXFL 529 NSCLC
[23] = system: M19-MEL melanoma
[24] = system: MALME-3M melanoma
[25] = system: MOLT-4 leukemia
[26] = system: NCI-H226 lung
[27] = system: NCI-H23 lung
[28] = system: NCI-H460 lung
[29] = system: OVCAR-4 ovarian
[30] = system: OVCAR-5 ovarian
[31] = system: OVCAR-8 ovarian
[32] = system: RXF 393 renal
[33] = system: RXF-631 renal
[34] = system: SF-268 CNS
[35] = system: SF-295 CNS
[36] = system: SF-539 CNS
[37] = system: SK-MEL-2 melanoma
[38] = system: SK-MEL-28 melanoma
[39] = system: SK-MEL-5 melanoma
[40] = system: SK-OV-3 ovarian
[41] = system: SN12C renal
[42] = system: SNB-19 CNS
[43] = system: SNB-78 CNS
[44] = system: SR leukemia
[45] = system: SW-620 colon
[46] = system: TK-10 renal
[47] = system: U251 CNS
[48] = system: UACC-257 melanoma
[49] = system: UACC-62 melanoma
[50] = system: UO-31 renal
[51] = system: XF 498 CNS
[52] = system: HCT-116 colon
[53] = system: HCT-15 colon
[54] = system: M14 melanoma
[55] = system: NCI-H522 lung
[56] = system: OVCAR-3 ovarian
[57] = system: RPMI-8226 leukemia
[58] = system: SNB-75 CNS

O=[N+]([O-])c1ccc(C2SCc3nc4ccccc4n32)cc1 (configuration not stated) gave a TGI [1] greater than 100 µM, a TGI [2] greater than 100 µM and a TGI [3] greater than 100 µM. The TGI [4] was greater than 100 µM, the TGI [5] was greater than 100 µM and the TGI [6] was greater than 100 µM. For the same molecule, the TGI [7] was greater than 100 µM, the TGI [8] was greater than 100 µM and the TGI [9] was greater than 100 µM. For the same molecule, the TGI [10] was greater than 100 µM, the TGI [11] was greater than 100 µM and the TGI [12] was greater than 100 µM. The TGI [13] was greater than 100 µM, the TGI [14] was greater than 100 µM and the TGI [15] was 91.3 µM. It also gave a TGI [16] greater than 100 µM, a TGI [17] of 60.2 µM and a TGI [18] greater than 100 µM. For the same molecule, the TGI [19] was greater than 100 µM, the TGI [20] was greater than 100 µM and the TGI [21] was greater than 100 µM. The TGI [22] was greater than 100 µM, the TGI [23] was greater than 100 µM and the TGI [24] was greater than 100 µM. The TGI [25] was greater than 100 µM, the TGI [26] was greater than 100 µM and the TGI [27] was greater than 100 µM. The TGI [28] was greater than 100 µM, the TGI [29] was greater than 100 µM and the TGI [30] was greater than 100 µM. The TGI [31] was greater than 100 µM, the TGI [32] was greater than 100 µM and the TGI [33] was greater than 100 µM. The TGI [34] was greater than 100 µM, the TGI [35] was greater than 100 µM and the TGI [36] was greater than 100 µM. It also gave a TGI [37] greater than 100 µM, a TGI [38] greater than 100 µM and a TGI [39] of 39.2 µM. It also gave a TGI [40] greater than 100 µM, a TGI [41] greater than 100 µM and a TGI [42] greater than 100 µM. The TGI [43] was greater than 100 µM, the TGI [44] was greater than 100 µM and the TGI [45] was greater than 100 µM. It also gave a TGI [46] greater than 100 µM, a TGI [47] greater than 100 µM and a TGI [48] greater than 100 µM. The TGI [49] was greater than 100 µM, the TGI [50] was greater than 100 µM and the TGI [51] was 80.6 µM.

O=C(O)/C(Cl)=C(Cl)/C=N/NC(=O)c1cc2ccccc2cc1O was tested, and the TGI [1] was greater than 100 µM, the TGI [2] was greater than 100 µM and the TGI [3] was greater than 100 µM. For the same molecule, the TGI [4] was greater than 100 µM, the TGI [5] was greater than 100 µM and the TGI [6] was 51.7 µM. The TGI [7] was greater than 100 µM, the TGI [8] was greater than 100 µM and the TGI [9] was 51.5 µM. For the same molecule, the TGI [10] was 45.2 µM, the TGI [11] was greater than 100 µM and the TGI [52] was greater than 100 µM. For the same molecule, the TGI [53] was greater than 100 µM, the TGI [12] was greater than 100 µM and the TGI [13] was 80.5 µM. The TGI [14] was greater than 100 µM, the TGI [15] was greater than 100 µM and the TGI [16] was greater than 100 µM. For the same molecule, the TGI [17] was greater than 100 µM, the TGI [18] was greater than 100 µM and the TGI [19] was greater than 100 µM. The TGI [20] was 87.2 µM, the TGI [22] was greater than 100 µM and the TGI [54] was 56 µM. For the same molecule, the TGI [23] was 75.4 µM, the TGI [24] was greater than 100 µM and the TGI [25] was 34.9 µM. The TGI [26] was 87.2 µM, the TGI [27] was 41.2 µM and the TGI [28] was greater than 100 µM. For the same molecule, the TGI [55] was 77 µM, the TGI [56] was greater than 100 µM and the TGI [29] was 72 µM. For the same molecule, the TGI [30] was 61.5 µM, the TGI [31] was greater than 100 µM and the TGI [57] was greater than 100 µM. It also gave a TGI [33] greater than 100 µM, a TGI [34] greater than 100 µM and a TGI [35] greater than 100 µM. It also gave a TGI [36] greater than 100 µM, a TGI [37] of 79.3 µM and a TGI [38] greater than 100 µM. For the same molecule, the TGI [39] was 24.6 µM, the TGI [40] was greater than 100 µM and the TGI [41] was greater than 100 µM. For the same molecule, the TGI [42] was greater than 100 µM, the TGI [58] was greater than 100 µM and the TGI [43] was greater than 100 µM. It also gave a TGI [44] of 39.3 µM, a TGI [45] greater than 100 µM and a TGI [46] greater than 100 µM. For the same molecule, the TGI [47] was greater than 100 µM, the TGI [48] was 65.6 µM and the TGI [49] was 14.6 µM. The TGI [50] was 6.36 µM and the TGI [51] was greater than 100 µM.
